Earlier results as cited in US7718634B2, “Method of treatment using bisphosphonic acid” (Hoffman-La Roche Inc., priority 2002, dated 2010).

What was measured:
bone resorption = details: animal models of bone resorption

CCCCCN(C)CCC(O)(P(=O)(O)O)P(=O)(O)O [ibandronate, 1-hydroxy-3-(N-methyl-N-pentyl)aminopropylidene-1,1-bisphosphonic acid]
number of osteoclasts (osteoclasts; at high doses): reduces the number of osteoclasts | bone resorption and mineralization (osteoclasts; in vivo): inhibits bone resorption without any impairment of mineralization | osteoclastic activity (osteoclasts; in vivo): decrease osteoclastic activity | times more potent than alendronate (bone resorption; relative to alendronate): 10 times | times more potent than clodronate (bone resorption; relative to clodronate): 500 times | times more potent than pamidronate (bone resorption; relative to pamidronate): 50 times | times more potent than risedronate (bone resorption; relative to risedronate): 2 times
